The values below come from US20100216734A1, “MODULATION OF NEUROGENESIS BY NOOTROPIC AGENTS” (BrainCells, Inc., priority 2006, published 2010).

Where “and” joins values, the source holds several entries; their conditions need not be identical. Equal values may be shown once. Entries after “also recorded” stand apart in the source; their conditions may differ. Where a name gives a salt, the structure may show the parent alone. Read-outs that look alike come from different tables or passages of the source. Peptide text beside a SMILES is read from it. * marks the point of attachment. PhAc = O=C(Cc1ccccc1)*

Assay [1] relates to human neural stem cells (hNSCs). As to the kind of experiment: Neuronal differentiation of human neural stem cells (TUJ-1 staining). It counts as cell-based. Particulars: for effect on neuronal differentiation, agent alone (in words): dose response of agent alone; for maximal percent neuronal differentiation in the presence of 1.0 μM NBQX: with 1.0 μM NBQX.
The next assay deals with human mGlu2 receptors (Homo sapiens, UniProt Q14416). Particulars: in vitro; low nanomolar range; read-out: EC50 against human mGlu2 receptors; cited from earlier work.
The next assay deals with human mGlu3 receptors (Homo sapiens, UniProt Q14832). Particulars: in vitro; low nanomolar range; read-out: EC50 against human mGlu3 receptors; cited from earlier work.
The target of the next assay is mGluR2 (Homo sapiens, UniProt Q14416). The following applies: read-out: IC50 against mGluR2; cited from earlier work.
The target in another assay is mGluR3 (Homo sapiens, UniProt Q14832). The following applies: read-out: IC50 against mGluR3; cited from earlier work.
The test system of assay [2] is Group I or Group III receptors. The following applies: at sub-mM concentrations; cited from earlier work.
Another assay relates to male F344 rats. In words: Novel object recognition in rat. Particulars: 0.5 mg/kg/day i.p. once daily for 7 days, p<0.05. It counts as in vivo. The procedure:
SGS-111 (0.5 mg/kg/day, i.p.) was administered to male F344 rats (n=12) once daily for 7 days. Animals were tested after 7 days of drug administration.
Shown in FIG. 9 is the mean number of visits to the novel object for vehicle and SGS-111 treated rats (±SEM). The y-axis represents mean visits. The x-axis indicates treatment. […] This difference is indicative of cognitive enhancement, an in vivo behavioral consequence of enhanced neurogenesis by SGS-111.

Assay [3] has as its system KA, AMPA, and NMDA iGlu receptors. The following applies: cited from earlier work.
Where [4] appears, read: hNSCs, test agent dose response with constant 0.316 μM AMPA, read-out: EC50 for neuronal differentiation in combination with 0.316 μM AMPA.
The mark [5] stands for this setting: Homo sapiens, Neural stem cell, hNSCs, agent run independently, % of neuronal positive control, basal media subtracted, read-out: EC50 for neuronal differentiation, agent alone.
Setting [6] is: hNSCs, agent run independently, % of neuronal positive control, basal media subtracted, read-out: EC50 for neuronal differentiation, agent alone.
[7] abbreviates: hNSCs, % of neuronal positive control.

human mGlu3 receptors, sequence (Q14832 23-879): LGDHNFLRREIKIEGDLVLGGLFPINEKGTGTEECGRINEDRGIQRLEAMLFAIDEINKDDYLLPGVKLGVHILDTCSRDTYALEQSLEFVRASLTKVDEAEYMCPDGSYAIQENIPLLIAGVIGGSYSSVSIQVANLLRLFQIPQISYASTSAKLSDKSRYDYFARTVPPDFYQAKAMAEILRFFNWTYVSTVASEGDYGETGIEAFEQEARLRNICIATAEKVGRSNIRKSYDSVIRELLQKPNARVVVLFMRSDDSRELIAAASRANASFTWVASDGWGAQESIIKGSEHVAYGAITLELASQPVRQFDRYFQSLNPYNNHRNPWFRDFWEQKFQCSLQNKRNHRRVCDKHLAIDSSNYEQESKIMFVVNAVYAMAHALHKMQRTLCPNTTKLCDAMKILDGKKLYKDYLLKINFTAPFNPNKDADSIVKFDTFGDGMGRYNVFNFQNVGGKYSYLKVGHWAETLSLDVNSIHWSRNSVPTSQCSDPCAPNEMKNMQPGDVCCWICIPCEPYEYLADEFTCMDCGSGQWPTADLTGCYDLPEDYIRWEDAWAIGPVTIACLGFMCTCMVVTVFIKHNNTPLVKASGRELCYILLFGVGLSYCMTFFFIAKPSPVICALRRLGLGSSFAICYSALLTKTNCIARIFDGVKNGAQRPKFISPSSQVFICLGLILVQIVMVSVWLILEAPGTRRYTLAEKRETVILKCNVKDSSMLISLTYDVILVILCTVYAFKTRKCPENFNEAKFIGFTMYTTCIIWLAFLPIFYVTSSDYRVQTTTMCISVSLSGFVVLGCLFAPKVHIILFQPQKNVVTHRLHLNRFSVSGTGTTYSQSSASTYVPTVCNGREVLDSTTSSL
mGluR3, sequence (Q14832 23-879): as above
human mGlu2 receptors, sequence (Q14416 19-872): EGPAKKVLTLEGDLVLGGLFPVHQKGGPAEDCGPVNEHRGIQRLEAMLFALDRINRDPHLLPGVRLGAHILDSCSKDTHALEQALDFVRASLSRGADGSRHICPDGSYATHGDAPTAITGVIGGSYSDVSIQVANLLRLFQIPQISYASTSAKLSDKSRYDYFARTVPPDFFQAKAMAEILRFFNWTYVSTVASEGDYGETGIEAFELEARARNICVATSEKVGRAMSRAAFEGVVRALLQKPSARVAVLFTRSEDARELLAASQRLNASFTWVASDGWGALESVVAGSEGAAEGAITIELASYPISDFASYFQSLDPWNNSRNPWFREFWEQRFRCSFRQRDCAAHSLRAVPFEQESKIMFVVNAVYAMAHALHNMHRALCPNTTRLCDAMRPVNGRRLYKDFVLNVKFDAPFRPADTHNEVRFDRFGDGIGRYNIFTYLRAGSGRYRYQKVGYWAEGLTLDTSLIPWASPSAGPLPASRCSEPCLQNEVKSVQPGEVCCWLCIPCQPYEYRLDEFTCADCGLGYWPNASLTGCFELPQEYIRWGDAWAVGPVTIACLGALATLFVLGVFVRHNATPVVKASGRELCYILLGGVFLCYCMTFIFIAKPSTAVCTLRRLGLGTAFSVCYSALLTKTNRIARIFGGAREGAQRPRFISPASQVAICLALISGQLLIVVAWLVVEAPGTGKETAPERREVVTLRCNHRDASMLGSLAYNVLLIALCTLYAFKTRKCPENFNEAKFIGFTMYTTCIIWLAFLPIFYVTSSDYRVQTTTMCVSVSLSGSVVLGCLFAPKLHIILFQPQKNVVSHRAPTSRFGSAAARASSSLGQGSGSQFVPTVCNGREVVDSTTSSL
mGluR2, sequence (Q14416 19-872): as above

The EC50 is the concentration giving half of the maximal effect. Turning to `NC(=O)COc1c(F)cc(SCCNS(=O)(=O)c2ccccc2)cc1F` [PEPA], the “effect on neuronal differentiation in the presence of 0.316 μM AMPA (in words)” value in assay [1] (hNSCs, constant 0.316 μM AMPA) was “stimulation of neuronal differentiation that was dose-dependent upon PEPA”. Besides, the “effect on neuronal differentiation, agent alone (in words)” value in assay [1] (hNSCs) is given as “No effect on neuronal differentiation; also recorded: did not significantly enhance neuronal differentiation”. Further, the concentration for a half-maximal effect (EC50) in assay [1] (setting [4]) is 0.69 µM.

For the compound `CC(=O)NCCCS(=O)(=O)O` [acamprosate], the values for the EC50 in assay [1] (setting [5]) and in assay [1] (setting [6]) were 16.4 µM and 9.68 µM, respectively.

With `COc1ccc2[nH]cc(CCNC(C)=O)c2c1` [melatonin], the EC50 in assay [1] (setting [5]) stood at 320 µM.

Regarding `N[C@@]1(C(=O)O)CO[C@H]2[C@H](C(=O)O)[C@H]21` [LY379268, (−)-2-oxa-4-aminobicyclohexane-4,6-dicarboxylic acid], the EC50 on human mGlu2 receptors and on human mGlu3 receptors was below 0.01 µM each time.

A word on the IC50: it is the concentration at which inhibition is half-maximal. On to `NC1(C(=O)O)CCc2cc(P(=O)(O)O)ccc21` (racemic) [APICA, (RS)-1-amino-5-phosphonoindan-1-carboxylic acid], for which the IC50 on mGluR2 and on mGluR3 was around 30 µM in each case. Moreover, the “activity against Group I or Group III receptors (in words)” value in assay [2] was “no appreciable activity”.

Consider `O=C1CC2(CCCC2)CC(=O)N1CCCCN1CCN(c2ncccn2)CC1` [buspirone], for which, in assay [1] (setting [5]), the EC50 turned out to be 7.43 µM.

For `NCC1CC(=O)N(Cc2ccccc2)C1` (stereo not shown) [nebracetam], the Emax in assay [1] (Homo sapiens, Neural stem cell, hNSCs, % of neuronal positive control, constant 0.316 μM AMPA, read-out: maximum percent neuronal differentiation (maximum efficacy) in combination with 0.316 μM AMPA) is 63%. Moreover, the “effect on neuronal differentiation in the presence of 0.316 μM AMPA (in words)” value in assay [1] (hNSCs, constant 0.316 μM AMPA) is recorded as “promoted dose dependent neuronal differentiation”. In assay [1] (hNSCs), the “effect on neuronal differentiation, agent alone (in words)” value is “failed to stimulate neuronal differentiation; also recorded: no effect on neuronal differentiation”. In assay [1] (setting [4]), the EC50 was 0.28 µM and 0.97 µM.

For `O=C1CC[C@H](C(=O)N2CCCCC2)N1` [fasoracetam], the EC50 in assay [1] (setting [5]) came out at 3.13 µM.

Turning to `CCOC(=O)CNC(=O)[C@@H]1CCCN1C(=O)Cc1ccccc1` [SGS-111] (PhAc-Pro-Gly-OEt), the “maximum percent neuronal differentiation (maximum efficacy), agent alone” value in assay [1] (setting [7]) is around 40%. In addition, in assay [1] (hNSCs, % of neuronal positive control, constant 0.316 μM AMPA), the “maximum percent neuronal differentiation (maximum efficacy) in combination with 0.316 μM AMPA” value is “approximately 60%”. Besides, the EC50 in assay [1] (setting [6]) is 7.2 µM; in assay [1] (setting [4]), 4.2 µM. For the same compound, in assay [1] (hNSCs, constant 0.316 μM AMPA), the “effect on neuronal differentiation in the presence of 0.316 μM AMPA (in words)” value was “a greater number of neurons at the highest concentration tested”. In addition, in the assay with male F344 rats, the “number of visits to / preference for the novel object versus familiar object” value was “statistically significant increase”.

Turning to `N[C@](CC1c2ccccc2Oc2ccccc21)(C(=O)O)[C@H]1C[C@@H]1C(=O)O` [LY341495, (2S)-2-amino-2-(1S,2S-2-carboxycycloprop-1-yl)-3-(xanth-9-yl) propanoic acid], the “activity against KA, AMPA, and NMDA iGlu receptors (in words)” value in assay [3] is “substantially inactive”.

In the case of `CCCc1nc2c(C)cc(-c3nc4ccccc4n3C)cc2n1Cc1ccc(-c2ccccc2C(=O)O)cc1` [telmisartan], the EC50 in assay [1] (setting [5]) stood at 2.75 µM.

Take `CCCCN(CC)c1nc(C)nc2c1c(C)c(C)n2-c1c(C)cc(C)cc1C` [antalarmin]: the EC50 in assay [1] (setting [5]) was 4.68 µM.

Consider `NC(=O)CN1CCCC1=O` [Piracetam], for which the EC50 in assay [1] (Homo sapiens, Neural stem cell, hNSCs, with 1.0 μM AMPA antagonist NBQX, read-out: EC50 for neuronal differentiation in the presence of 1.0 μM NBQX) was above 32 µM. In addition, in assay [1] (Homo sapiens, Neural stem cell, hNSCs, % of neuronal positive control, read-out: maximum percent neuronal differentiation (maximum efficacy), agent alone), the Emax came out at 60%. Besides, the “effect on neuronal differentiation, agent alone (in words)” value in assay [1] (hNSCs) is on record as “promoted neuronal differentiation”. In addition, the “maximal percent neuronal differentiation in the presence of 1.0 μM NBQX” value in assay [1] (setting [7]) is recorded as 38%.

Regarding `COC(=O)C(c1ccccc1)C1CCCCN1` (stereo not shown) [methylphenidate HCl, methylphenidate hydrochloride], in assay [1] (Homo sapiens, Neural stem cell, read-out: EC50 for neuronal differentiation, agent alone, hNSCs, agent run independently, % of neuronal positive control, basal media subtracted), the EC50 came out at 1.29 µM.

In the case of `COC(=O)[C@@H]1[C@H]2C[C@H]3c4[nH]c5ccccc5c4CCN3C[C@@H]2CC[C@@H]1O` [yohimbine], the EC50 in assay [1] (setting [5]) amounted to 0.62 µM.

Turning to `NC(=O)c1ncn([C@@H]2O[C@H](CO)[C@@H](O)[C@H]2O)n1` [ribavirin], in assay [1] (setting [5]), the EC50 amounted to 5.14 µM.

Take `Cc1onc(O)c1CC(N)C(=O)O` (stereo not drawn) [AMPA, alpha-amino-3-hydroxy-5-methyl-4-isoxazolepropionic acid]: in assay [1] (Homo sapiens, Neural stem cell, read-out: EC50 for neuronal differentiation in the presence of 1.0 μM NBQX, hNSCs, with 1.0 μM AMPA antagonist NBQX), the EC50 was above 32 µM. The Emax in assay [1] (Homo sapiens, Neural stem cell, read-out: maximum percent neuronal differentiation (maximum efficacy), agent alone) came out at 50%. Moreover, in assay [1] (hNSCs, AMPA 0.316 μM), the “effect of AMPA at 0.316 μM alone on neuronal differentiation (in words)” value is “failed to stimulate neuronal differentiation; also recorded: no effects on neuronal differentiation”. In addition, the “effect on neuronal differentiation, agent alone (in words)” value in assay [1] (hNSCs) is on record as “promoted neuronal differentiation”. For the same compound, the “maximal percent neuronal differentiation in the presence of 1.0 μM NBQX” value in assay [1] (setting [7]) came out at 7%.

`CC(=O)N1CCN(NC(=O)c2ccc(F)cc2)CC1` [FK-960]: in assay [1] (setting [6]), the EC50 stood at 7 µM. Also, in assay [1] (hNSCs), the “effect on neuronal differentiation, agent alone (in words)” value was “promoted neuronal differentiation”.
